Experimental data from PubChem BioAssay (NCI).
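A five-concentration, 48-hour dose response in 96-well plates underlies each endpoint, interpolated linearly between surrounding concentrations. GI50 is the concentration that inhibits growth by half. TGI: concentration producing complete growth inhibition.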

Tests used:
Experiment in all cases: NCI anticancer screen, dose series, 48 h
CAKI-1 renal = tested on: CAKI-1 renal
HCT-116 colon = tested on: HCT-116 colon
KM12 colon = tested on: KM12 colon
MDA-MB-231 breast = tested on: MDA-MB-231 breast
MOLT-4 leukemia = tested on: MOLT-4 leukemia
RPMI-8226 leukemia = tested on: RPMI-8226 leukemia
RXF 393 renal = tested on: RXF 393 renal
SK-MEL-2 melanoma = tested on: SK-MEL-2 melanoma
SK-OV-3 ovarian = tested on: SK-OV-3 ovarian
SR leukemia = tested on: SR leukemia

Row | SMILES | TGI (CAKI-1 renal) | TGI (HCT-116 colon) | TGI (KM12 colon) | TGI (MDA-MB-231 breast) | TGI (MOLT-4 leukemia) | TGI (RPMI-8226 leukemia) | TGI (RXF 393 renal) | TGI (SK-MEL-2 melanoma) | TGI (SK-OV-3 ovarian) | TGI (SR leukemia) | GI50 (CAKI-1 renal) | GI50 (HCT-116 colon) | GI50 (KM12 colon) | GI50 (MDA-MB-231 breast) | GI50 (MOLT-4 leukemia) | GI50 (RPMI-8226 leukemia) | GI50 (RXF 393 renal) | GI50 (SK-MEL-2 melanoma) | GI50 (SK-OV-3 ovarian) | GI50 (SR leukemia)
1 | O=C1C(C(c2ccc([N+](=O)[O-])cc2)N2CCOCC2)=C(O)C(c2ccccc2)N1c1ccccc1 (stereo unspecified) | > 10 µM | > 10 µM | > 10 µM | > 10 µM | > 10 µM | > 10 µM | > 10 µM | > 10 µM | > 10 µM | > 10 µM | – | – | – | – | – | – | – | – | – | –
2 | N/C(=N\S(=O)(=O)c1ccc(-c2ccccn2)s1)Nc1ccc(Cl)cc1 | 24.9 µM | 31 µM | 70.4 µM | 27.9 µM | 5.61 µM | 84.5 µM | 35.3 µM | 27.4 µM | 47.9 µM | 53.1 µM | – | – | – | – | – | – | – | – | – | –
3 | CC(C(=O)NCCNC(=O)CCC(=O)N(C)O)C(=O)NCCNC(=O)CCC(=O)N(C)O | > 100 µM | – | > 100 µM | > 100 µM | > 100 µM | > 100 µM | > 100 µM | > 100 µM | > 100 µM | > 100 µM | – | – | – | – | – | – | – | – | – | –
4 | CC(C)(C)c1ccc(O)c(C(c2ccc([N+](=O)[O-])cc2)c2cc(C(C)(C)C)ccc2O)c1 | 2.88 µM | 5.06 µM | – | 3.78 µM | 5.14 µM | 4.98 µM | 3.66 µM | 3.36 µM | 4.15 µM | 5.47 µM | – | – | – | – | – | – | – | – | – | –
5 | Cc1ccc(S(=O)(=O)NC(=O)NCCc2ccc(O)c(O)c2)cc1 | > 100 µM | > 100 µM | > 100 µM | > 100 µM | > 100 µM | > 100 µM | > 100 µM | > 100 µM | > 100 µM | > 100 µM | – | – | – | – | – | – | – | – | – | –
6 | Cc1ccc(S(=O)(=O)/N=C2/N(C)CCCS2(=O)=O)cc1 | > 100 µM | > 100 µM | > 100 µM | 31.9 µM | > 100 µM | > 100 µM | > 100 µM | > 100 µM | > 100 µM | > 100 µM | – | – | – | – | – | – | – | – | – | –
7 | Nc1ncnc2c1ncn2C1OC(CO)C(O)C1NS(=O)(=O)c1ccccc1 (stereo unspecified) | > 100 µM | > 100 µM | > 100 µM | > 100 µM | > 100 µM | > 100 µM | > 100 µM | > 100 µM | > 100 µM | > 100 µM | – | – | – | – | – | – | – | – | – | –
8 | O=C(/C=C/c1ccc(OCc2ccccc2)cc1)NCc1ccc(C(=O)NCc2ccccc2)cc1 | > 100 µM | > 100 µM | > 100 µM | > 100 µM | > 100 µM | > 100 µM | > 100 µM | > 100 µM | > 100 µM | > 100 µM | – | – | – | – | – | – | – | – | – | –
9 | C=CCNc1nc(O)c(/C=C2\C=Nc3ncccc32)s1 | > 100 µM | > 100 µM | 8.23 µM | 6.63 µM | 7.95 µM | 6.71 µM | 4.25 µM | 5.09 µM | 8.66 µM | 88.3 µM | 2.22 µM | 1.52 µM | 2.51 µM | 2.44 µM | 2.64 µM | 2.26 µM | 2.07 µM | 2.23 µM | 2.21 µM | 0.408 µM
10 | Nc1nc2c(c(-c3ccccc3Cl)n1)COC/C2=C\c1ccccc1Cl | 31.9 µM | 30.7 µM | 41.8 µM | 34.8 µM | 34.6 µM | 35.2 µM | 29.9 µM | 31 µM | 30 µM | 22.9 µM | – | – | – | – | – | – | – | – | – | –
11 | NC(=S)Nc1ccc2c(c1)oc1ccccc12 | > 100 µM | > 100 µM | > 100 µM | > 100 µM | > 100 µM | > 100 µM | > 100 µM | > 100 µM | > 100 µM | > 100 µM | – | – | – | – | – | – | – | – | – | –
12 | CC(C)NCC(O)c1ccc(O)c2ncccc12 (stereo unspecified) | > 100 µM | 87.7 µM | > 100 µM | > 100 µM | 46.9 µM | > 100 µM | > 100 µM | > 100 µM | > 100 µM | 67.6 µM | – | – | – | – | – | – | – | – | – | –
13 | CNC(=O)c1cc2nc3ccccc3c(=O)n2c2ccccc12 | > 10 µM | > 10 µM | > 10 µM | > 10 µM | > 10 µM | > 10 µM | > 10 µM | > 10 µM | > 10 µM | > 10 µM | – | – | – | – | – | – | – | – | – | –
14 | C[C@@H](NC(=O)[C@@H]1C[C@]1(C)CO)c1cccc2ccccc12 | > 100 µM | > 100 µM | > 100 µM | > 100 µM | > 100 µM | > 100 µM | > 100 µM | > 100 µM | > 100 µM | > 100 µM | – | – | – | – | – | – | – | – | – | –
15 | CCOC(=O)C1(C#N)C2(C#N)C(N)=NC(ON=C(C)C)(ON=C(C)C)C12C#N (stereo unspecified) | > 100 µM | > 100 µM | > 100 µM | > 100 µM | > 100 µM | > 100 µM | > 100 µM | > 100 µM | > 100 µM | > 100 µM | – | – | – | – | – | – | – | – | – | –
16 | N#C/C(=C/n1c(=S)[nH]c2ccccc21)C(N)=O | > 100 µM | > 100 µM | > 100 µM | > 100 µM | > 100 µM | > 100 µM | > 100 µM | > 100 µM | > 100 µM | > 100 µM | – | – | – | – | – | – | – | – | – | –
17 | O=C(/C=C/c1ccc2c(c1)OCO2)NCCc1ccco1 | > 100 µM | > 100 µM | > 100 µM | > 100 µM | > 100 µM | 99.1 µM | > 100 µM | > 100 µM | > 100 µM | > 100 µM | – | – | – | – | – | – | – | – | – | –
18 | COC(=O)c1ccccc1NC(=S)NN(C)C | > 100 µM | > 100 µM | > 100 µM | > 100 µM | > 100 µM | > 100 µM | > 100 µM | > 100 µM | > 100 µM | > 100 µM | – | – | – | – | – | – | – | – | – | –
19 | CC(C)(C)c1cc(C(=O)C2Cc3ccccc3C(=O)O2)cc(C(C)(C)C)c1O (stereo unspecified) | 52.5 µM | 21.9 µM | 32.1 µM | 31.7 µM | > 100 µM | 42.1 µM | 27.7 µM | 23.9 µM | 56.3 µM | 51.2 µM | – | – | – | – | – | – | – | – | – | –
20 | Oc1cc(O)c2c(c1)O[C@H](c1cc(O)c(O)c(O)c1)[C@@H](O)C2 | > 100 µM | 33.2 µM | – | 34 µM | > 10 µM | 43.9 µM | 30.7 µM | 64.8 µM | 74.7 µM | 39.1 µM | – | – | – | – | – | – | – | – | – | –
21 | COc1cc(NS(C)(=O)=O)ccc1NCc1cnc2ccc3[nH]cccc3c12 | > 72.7 µM | > 70 µM | 37.6 µM | 51 µM | 22.1 µM | 29.8 µM | 21.3 µM | 39.4 µM | 48 µM | 28 µM | – | – | – | – | – | – | – | – | – | –
22 | COc1cc(OCc2nc3cc(C(F)(F)F)ccc3nc2-c2ccccc2)cc(OC)c1OC | > 100 µM | > 100 µM | > 100 µM | > 100 µM | > 100 µM | > 100 µM | 65.8 µM | > 100 µM | > 100 µM | > 100 µM | – | – | – | – | – | – | – | – | – | –
23 | Cc1ccc(/C(O)=C/c2nc3cccnc3[nH]c2=O)cc1 | > 100 µM | > 100 µM | > 100 µM | > 100 µM | > 100 µM | > 100 µM | 80.1 µM | > 100 µM | > 100 µM | > 100 µM | – | – | – | – | – | – | – | – | – | –
24 | c1ccc(C(c2cccc3c2ccc2ccccc23)C(c2ccccc2)c2cccc3c2ccc2ccccc23)cc1 (stereo unspecified) | > 100 µM | > 100 µM | > 100 µM | > 100 µM | > 100 µM | > 100 µM | > 100 µM | > 100 µM | > 100 µM | > 100 µM | – | – | – | – | – | – | – | – | – | –
25 | CCCCC(=C=C(C)CO)C1CCCN1C(=O)OC(C)(C)C (stereo unspecified) | 61.5 µM | 29.5 µM | 34.8 µM | 34 µM | 33.8 µM | 36.8 µM | 29.4 µM | 30.6 µM | 67.4 µM | 31.5 µM | – | – | – | – | – | – | – | – | – | –
26 | C[C@]12C(=O)C=CCC1=CC[C@@H]1[C@@H]2[C@H]2CC3(O)C(=O)O[C@@]4(C)[C@H]5C[C@@]6(C)[C@@H]7[C@@]2(O)[C@]1(OC[C@H]6C(=O)O5)O[C@]734 (stereo partly specified) | > 100 µM | > 100 µM | > 100 µM | > 100 µM | 90.3 µM | > 100 µM | 55.7 µM | > 100 µM | – | 75.2 µM | – | – | – | – | – | – | – | – | – | –
